Columns and labels:
Jurkat cells = test: TMTpro quantitative proteomics, 16 h; settings: for Scaled value (to 150), replicate 01 / Scaled value (to 150), replicate 02 / Scaled value (to 150), replicate 03: Jurkat whole cell extracts, TMTpro SPS-MS3
Description: Quantitative proteomics screens were carried out in untransduced Jurkat cells, embryonic stem cells (ESCs), and the multiple myeloma cell line, MM.1S. We used Jurkat cells, as our work up to this point had employed this cell line, and we selected ESCs and MM.1S cells as they express known CRBN neosubstrates, including IKZF1, IKZF3, RAB28, RNF166, SALL4, ZFP91, and ZNF827.
Proteomics - cell lysis and protein digestion
The viability of Jurkat cells was tested after 16-h treatment with corresponding chemicals
viable cells in each condition. Next, ~10^7 cells per condition were collected by centrifugation (1000 rpm), washed twice with ice-cold PBS, and lysed in RIPA buffer [50 mM HEPES pH 7.4, 150 mM NaCl, 1% sodium deoxycholate, 1% NP-40, 0.1% SDS, 10 mM sodium pyrophosphate, 10 mM β-glycerophosphate, 2.5 mM MgCl2, 200 µM TCEP, phosphatase and protease inhibitor cocktail (in-house)], to produce whole cell extracts. Whole-cell extracts were sonicated, and protein concentrations were determined using the Bradford assay. Protein extracts (100 µg) were subjected to disulfide bond reduction with 5 mM TCEP (10 min) and alkylation with 25 mM chloroacetamide (20 min). Methanol–chloroform precipitation was performed prior to protease digestion. In brief, four parts of neat methanol were added to each sample and vortexed, one part chloroform was added to the sample and vortexed, and finally, three parts water was added to the sample and vortexed. The sample was centrifuged at 8000 rpm for 5 min at room temperature and subsequently washed twice with 100% methanol. Samples were resuspended in 100 mM EPPS pH8.5 containing
0.1% RapiGest and digested at 37 °C for 6 h with trypsin at a 100:1 protein-to-protease ratio.
Samples were then subjected to TMTpro
labeling. The preparation of MM1S cell extracts was conducted using the same procedure as for
Jurkat cells. ESC cells were plated onto 6 cm dishes 24 hours prior to the chemical treatment.
Following the chemical treatment, the cells on the dish were washed with DPBS four times, after
which RIPA buffer was added directly to the dish, and the lysate was collected using a scraper.
The whole cell lysates were then processed similarly to the Jurkat cell lysates.
Proteomics - Tandem mass tag labeling
Proline-based reporter isobaric Tandem Mass Tag (TMTpro) labeling of dried peptide samples
resuspended in 100 mM EPPS pH 8.5, was carried out as follows. TMTpro reagent was added to
samples (100 µg peptide), along with acetonitrile, to achieve a final acetonitrile concentration of
approximately 30% (v/v). Following incubation at room temperature for 1 h, the labeling efficiency
of a small aliquot was tested. The reaction was then quenched with hydroxylamine to a final
concentration of 0.5% (v/v) for 15 min. The TMTpro-labeled samples were pooled together at a
1:1 ratio. The sample was vacuum centrifuged to near dryness and subjected to C18 solid-phase
The dried TMTpro-labeled sample was resuspended in 100 μL of 10 mM NH4HCO3 pH 8.0 and
fractionated using basic pH reverse phase HPLC 40. Briefly, samples were offline fractionated over
a 90 min run, into 96 fractions by high pH reverse-phase HPLC (Agilent LC1260) through an aeris
peptide xb-c18 column (Phenomenex; 250 mm × 3.6 mm) for total proteome with mobile phase A
containing 5% acetonitrile and 10 mM NH4HCO3, and mobile phase B containing 90% acetonitrile

[1] = test system: library of 8380 IKZF3 degrons fused to EGFP in Jurkat cells; test: Pooled mutant ZF degron library screen (FACS EGFPlow vs EGFP+, NGS), 18 h; type: cell-based, human; settings: for Log2FC: WT degron, residues 146/147/149/150/152/153/154/155/167: FQNQGASFL;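 on logFC: Log2 fold change of EGFPlow over EGFP+ representation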
[2] = protein AADAT isoform 2 (Q8N5Z0-2)

## O=C1CCC(N2C(=O)c3ccccc3C2=O)C(=O)N1 (stereo not shown) [Compound 1, thalidomide, reference compound]
Jurkat cells; protein A2M (P01023)
  Scaled value (to 150), replicate 01: 8.46
  Scaled value (to 150), replicate 02: 13.549
  Scaled value (to 150), replicate 03: 7.506
Jurkat cells; protein AAAS (Q9NRG9)
  Scaled value (to 150), replicate 01: 10.0487
  Scaled value (to 150), replicate 02: 9.769
  Scaled value (to 150), replicate 03: 10.5105
Jurkat cells; protein AACS (Q86V21)
  Scaled value (to 150), replicate 01: 10.2228
  Scaled value (to 150), replicate 02: 10.5542
  Scaled value (to 150), replicate 03: 9.811
Jurkat cells; [2]
  Scaled value (to 150), replicate 01: 9.84
  Scaled value (to 150), replicate 02: 10.2362
  Scaled value (to 150), replicate 03: 11.2082
Jurkat cells; Jurkat, 10 μM, 16 h, 9644 quantified proteins
  proteins degraded (quantitative proteomics): did not induce major protein degradation
[1]; listed as Thal
  Log2FC: 1.13
[1]; listed as Thalidomide
  Log2FC: 1.1337
[1]; degron residues 146/147/149/150/152/153/154/155/167: FADIGAAFL
  logFC: -0.52
[1]; degron residues 146/147/149/150/152/153/154/155/167: FADIGAAFL, listed as A32
  logFC: -0.5175
[1]; degron residues 146/147/149/150/152/153/154/155/167: FADIGACFL
  logFC: -1.27
[1]; degron residues 146/147/149/150/152/153/154/155/167: FADIGACFL, listed as A32
  logFC: -1.269
[1]; degron residues 146/147/149/150/152/153/154/155/167: FADIGADFL
  logFC: -2.30
[1]; degron residues 146/147/149/150/152/153/154/155/167: FADIGADFL, listed as A32
  logFC: -2.302
[1]; degron residues 146/147/149/150/152/153/154/155/167: FADIGAEFL
  logFC: -1.72
[1]; degron residues 146/147/149/150/152/153/154/155/167: FADIGAEFL, listed as A32
  logFC: -1.72
[1]; degron residues 146/147/149/150/152/153/154/155/167: FADIGAFFL
  logFC: -2.34
[1]; degron residues 146/147/149/150/152/153/154/155/167: FADIGAGFL
  logFC: -1.45
[1]; degron residues 146/147/149/150/152/153/154/155/167: FADIGAHFL
  logFC: -1.89
[1]; degron residues 146/147/149/150/152/153/154/155/167: FADIGAIFL
  logFC: -1.38
[1]; degron residues 146/147/149/150/152/153/154/155/167: FADIGAKFL
  logFC: -0.77
[1]; degron residues 146/147/149/150/152/153/154/155/167: FADIGALFL
  logFC: -1.99
[1]; degron residues 146/147/149/150/152/153/154/155/167: FADIGAMFL
  logFC: -1.81
[1]; degron residues 146/147/149/150/152/153/154/155/167: FADIGANFL
  logFC: -1.52
[1]; degron residues 146/147/149/150/152/153/154/155/167: FADIGAPFL
  logFC: 0.38
[1]; degron residues 146/147/149/150/152/153/154/155/167: FADIGAQFL
  logFC: -1.14
[1]; degron residues 146/147/149/150/152/153/154/155/167: FADIGARFL
  logFC: -0.98
[1]; degron residues 146/147/149/150/152/153/154/155/167: FADIGASFL
  logFC: -1.01
[1]; degron residues 146/147/149/150/152/153/154/155/167: FADIGATFL
  logFC: -1.50
[1]; degron residues 146/147/149/150/152/153/154/155/167: FADIGAVFL
  logFC: -1.28
[1]; degron residues 146/147/149/150/152/153/154/155/167: FADIGAWFL
  logFC: -2.70
[1]; degron residues 146/147/149/150/152/153/154/155/167: FADIGAYFL
  logFC: -1.46
[1]; degron residues 146/147/149/150/152/153/154/155/167: FADQGAAFL
  logFC: -3.14
[1]; degron residues 146/147/149/150/152/153/154/155/167: FADQGACFL
  logFC: -2.81
[1]; degron residues 146/147/149/150/152/153/154/155/167: FADQGADFL
  logFC: -2.96
[1]; degron residues 146/147/149/150/152/153/154/155/167: FADQGAEFL
  logFC: -3.47
[1]; degron residues 146/147/149/150/152/153/154/155/167: FADQGAFFL
  logFC: -3.47
[1]; degron residues 146/147/149/150/152/153/154/155/167: FADQGAGFL
  logFC: -2.45
[1]; degron residues 146/147/149/150/152/153/154/155/167: FADQGAHFL
  logFC: -3.40
[1]; degron residues 146/147/149/150/152/153/154/155/167: FADQGAIFL
  logFC: -2.61
[1]; degron residues 146/147/149/150/152/153/154/155/167: FADQGAKFL
  logFC: -2.20
[1]; degron residues 146/147/149/150/152/153/154/155/167: FADQGALFL
  logFC: -2.67
[1]; degron residues 146/147/149/150/152/153/154/155/167: FADQGAMFL
  logFC: -2.56
[1]; degron residues 146/147/149/150/152/153/154/155/167: FADQGANFL
  logFC: -3.17
[1]; degron residues 146/147/149/150/152/153/154/155/167: FADQGAPFL
  logFC: -2.41

From paper PMC12645437, “Orthogonal IMiD-Degron Pairs Induce Selective Protein Degradation in Cells” (ACS Chemical Biology, 2025)
